Peptide text beside a SMILES is read from it.
What was measured:
[1] = as compared with the I type crystals; cited from earlier work
[2] = drying at a high temperature; part readily converted to a diketopiperadine derivative; cited from earlier work
[3] = Crystal form conversion (I type to II type) on drying; assay type: physicochemical; settings: irrespective of the drying method
[4] = cited from earlier work
[5] = Ratio of I type crystals by X-ray diffraction specific peaks with calibration curve; assay type: physicochemical; settings: peaks at 2θ 4.4° (I) and 5.0° (II)
Method: Then, the ratio of the I type crystals was determined by comparing the strength ratio of each sample with the calibration curve.

[6] = Solubility: duration till 1 g of Aspartame crystals in 500 ml distilled water was completely dissolved as visually observed; assay type: physicochemical; settings: 1 g in 500 ml distilled water, 20° C., magnetic stirrer 200 r.p.m.; for Solubility (min) (duration till completely dissolved): Table 1; for Solubility (min.) (duration till completely dissolved): Table 2, dried at 50° C. then 70° C.
Method: In the Examples, the solubility of Aspartame crystals was determined by measuring the duration till 1 g of Aspartame crystals which was added to 500 ml of distilled water at 20° C., followed by stirring (by a magnetic stirrer at 200 r.p.m.), was completely dissolved as visually observed.

[7] = Dispersibility and solubility in water (general statements); assay type: physicochemical; settings: as compared with the II type crystals
[8] = Table 2, dried at 50° C. then 70° C.

| SMILES | Ratio of I type crystals (%) [5, 8] | Solubility (min.) (duration till completely dissolved) [6] | also measured |
| --- | --- | --- | --- |
| COC(=O)[C@H](Cc1ccccc1)NC(=O)[C@@H](N)CC(=O)O [Aspartame II type crystals, α-L-aspartyl-L-phenylalanine methyl ester] (H-Asp-Phe-OMe) |  |  | hygroscopicity [1]: low hygroscopicity; storage stability [1]: excellent storage stability |
| COC(=O)[C@H](Cc1ccccc1)NC(=O)[C@@H](N)CC(=O)O [Aspartame, α-L-aspartyl-L-phenylalanine methyl ester] (H-Asp-Phe-OMe) |  |  | stability at a high temperature [2]: not stable at a high temperature; water content till which the I type crystal form is maintained [3]: about 15 % by weight; dispersibility and solubility in water [4]: poor dispersibility and solubility in water |
| COC(=O)[C@H](Cc1ccccc1)NC(=O)[C@@H](N)CC(=O)O [Comparative Example 1, α-L-aspartyl-L-phenylalanine methyl ester] (H-Asp-Phe-OMe) |  |  | Ratio of I type crystals (%) ([5]; Table 1): 25%; Solubility (min) (duration till completely dissolved) [6]: 13 to 14 min |
| COC(=O)[C@H](Cc1ccccc1)NC(=O)[C@@H](N)CC(=O)O [Example 1, α-L-aspartyl-L-phenylalanine methyl ester] (H-Asp-Phe-OMe) |  |  | Ratio of I type crystals (%) ([5]; Table 1): 98%; Solubility (min) (duration till completely dissolved) [6]: 5 to 6 min |
| COC(=O)[C@H](Cc1ccccc1)NC(=O)[C@@H](N)CC(=O)O [Example 2, α-L-aspartyl-L-phenylalanine methyl ester] (H-Asp-Phe-OMe) | 90% | 5 to 6 min |  |
| COC(=O)[C@H](Cc1ccccc1)NC(=O)[C@@H](N)CC(=O)O [Example 3, α-L-aspartyl-L-phenylalanine methyl ester] (H-Asp-Phe-OMe) | 100% | 5 to 6 min |  |
| COC(=O)[C@H](Cc1ccccc1)NC(=O)[C@@H](N)CC(=O)O [Example 4, α-L-aspartyl-L-phenylalanine methyl ester] (H-Asp-Phe-OMe) | 98% | 4 to 5 min |  |
| COC(=O)[C@H](Cc1ccccc1)NC(=O)[C@@H](N)CC(=O)O [Example 5, α-L-aspartyl-L-phenylalanine methyl ester] (H-Asp-Phe-OMe) | 100% | 4 to 5 min |  |
| COC(=O)[C@H](Cc1ccccc1)NC(=O)[C@@H](N)CC(=O)O [I type crystals, α-L-aspartyl-L-phenylalanine methyl ester] (H-Asp-Phe-OMe) |  |  | solubility, I type versus II type crystals [7]: far superior in the solubility to the II type crystals |
| COC(=O)[C@H](Cc1ccccc1)NC(=O)[C@@H](N)CC(=O)O [compound 2, α-L-aspartyl-L-phenylalanine methyl ester] (H-Asp-Phe-OMe) | 60% | 13 to 14 min |  |
| COC(=O)[C@H](Cc1ccccc1)NC(=O)[C@@H](N)CC(=O)O [compound 3, α-L-aspartyl-L-phenylalanine methyl ester] (H-Asp-Phe-OMe) | 51% | 15 to 16 min |  |
| COC(=O)[C@H](Cc1ccccc1)NC(=O)[C@@H](N)CC(=O)O [compound 4, α-L-aspartyl-L-phenylalanine methyl ester] (H-Asp-Phe-OMe) | 64% | 14 to 15 min |  |
| COC(=O)[C@H](Cc1ccccc1)NC(=O)[C@@H](N)CC(=O)O [compound 5, α-L-aspartyl-L-phenylalanine methyl ester] (H-Asp-Phe-OMe) | 78% | 7 to 8 min |  |
